Measured values taken from PubChem BioAssay (NCI).
Where “and” joins values, the source holds several entries; their conditions need not be identical. Equal values may be shown once.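 How tested: cells in 96-well plates exposed to compound for 48 hours at five concentrations. GI50: concentration for 50% inhibition of growth. TGI marks complete inhibition of growth.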

Experiments:
Experiment in all cases: growth of human tumour cells (NCI), 48 h
[1] = test system: HOP-18 NSCLC
[2] = test system: DMS 273 small cell lung
[3] = test system: KM20L2 colon
[4] = test system: LXFL 529 NSCLC
[5] = test system: SNB-78 CNS
[6] = test system: DLD-1 colon
[7] = test system: RXF-631 renal
[8] = test system: XF 498 CNS
[9] = test system: MDA-N

Structure (SMILES) | TGI [1] | TGI [2] | TGI [3] | TGI [4] | TGI [5] | TGI [6] | TGI [7] | TGI [8] | TGI [9] | other results
O=C(Nc1cccc(Cl)c1)C(=O)C(C(=O)c1ccc2ccccc2c1)C1OC(=O)c2ccccc21 (stereo unspecified) | 28.2 µM | 89.6 µM | > 100 µM | 21.9 µM | 50.6 µM | 32.7 µM | 81.2 µM | – | – | –
COc1ccc2c(c1OCC(=O)O)C(=O)C(CCC(=O)O)CC2 (stereo unspecified) | > 100 µM | > 100 µM | > 100 µM | > 100 µM | > 100 µM | > 100 µM | > 100 µM | > 100 µM | – | –
CC1CC2CCCC(O)=C2C(=O)O1 (stereo unspecified) | – | – | – | – | – | – | – | – | > 100 µM | –
CCOC(=O)N[C@H]1CCc2cc(OC)c(OC)c(OC)c2-c2ccc(SC)c(=O)cc21 | > 100 µM | > 100 µM | < 0.01 µM | – | > 100 µM | > 100 µM | – | 29.8 µM | > 100 µM | –
COC(=O)/C(C#N)=C1\N=NNN1c1ccc(OC)cc1 | > 100 µM | > 100 µM | – | > 100 µM | > 100 µM | > 100 µM | > 100 µM | – | – | –
O=C1N=C2Sc3ccc4ccccc4c3N2C1=O | 33 µM | 53.2 µM | 64.4 µM | 37.7 µM | 79.5 µM | 95 µM | 51.9 µM | 41.3 µM | – | –
CC1(C)COC(c2cccc3c2C(=O)c2cccc(Cl)c2-3)=N1 | – | > 100 µM | > 100 µM | > 100 µM | > 100 µM | – | > 100 µM | > 100 µM | – | –
CCCC(=O)Nc1cn(COC)c(C(=O)N2C[C@@H]3C[C@]34C2=CC(=O)c2[nH]cc(C)c24)n1 | – | – | – | – | – | – | – | – | 19.3 µM and 31.3 µM | GI50 [9]: 12.7 µM
O=C(CC1C(=O)Nc2ccccc2S1=O)Nc1cc(Cl)ccc1Cl (stereo unspecified) | – | > 100 µM | > 100 µM | > 100 µM | > 100 µM | > 100 µM | > 100 µM | > 100 µM | – | –
CCOc1ccc(/C=C2\N=C(c3ccc([N+](=O)[O-])cc3)OC2=O)cc1 | – | – | – | – | – | – | – | – | > 100 µM | –
O=[N+]([O-])c1ccc2occ3c2c1CCC3 | – | > 100 µM | – | > 100 µM | > 100 µM | > 100 µM | – | – | – | –
NNC(=O)CNc1cccc(Br)c1 | – | – | – | – | – | – | – | – | > 100 µM | –
CCCCCCCCCCCCCCCC(=O)OCCOCCOCCOCc1ccccc1 | > 100 µM | > 100 µM | – | – | > 100 µM | > 100 µM | – | > 100 µM | – | –
N#CC(C(=O)/C(=N\NC(N)=O)C(C#N)c1ccc(Cl)cc1)c1ccc(Cl)cc1 (stereo unspecified) | > 100 µM | – | > 100 µM | > 100 µM | > 100 µM | > 100 µM | > 100 µM | > 100 µM | – | –
Cc1nc(N)sc1N=Nc1ccccc1Br | – | – | – | – | – | – | – | – | 64.7 µM | –
COc1c(O)c2c(=O)cc3c4c5c(cc(=O)c6c(O)c(OC)c(CC(C)O)c(c(c1CC(C)O)c24)c65)OCO3 (stereo unspecified) | 8.3 µM | 3.26 µM | 1.69 µM | 11.4 µM | 8.04 µM | 8.39 µM | – | – | – | –
COc1cc(N(CCC#N)CCC#N)ccc1/C(N=Nc1ccc(Cl)cc1)=N/NC(=O)c1cc(Br)ccc1O | – | – | – | – | – | – | – | – | > 150 µg/mL | GI50 [9]: 90.3 µg/mL
Cc1nc(Nc2ccc(Cl)cc2)sc1C(=O)NNC(=S)NN | 33.5 µM | 36.2 µM | 32.5 µM | 36.4 µM | 57.2 µM | 30.7 µM | 36.1 µM | 38.4 µM | – | –
NS(=O)(=O)c1ccc(N=Nc2c(O)c(C(=O)O)cc3ccccc23)cc1 | – | – | – | – | – | – | – | – | > 100 µM | –
CCC[CH2][Sn]([CH2]CCC)([O]C(=O)c1ccc(OC)c(OC)c1OC)[O][Sn]([CH2]CCC)([CH2]CCC)[O]C(=O)c1ccc(OC)c(OC)c1OC | 0.473 µM | 1.54 µM | 2.12 µM | 0.0938 µM | 0.211 µM | 0.419 µM | – | 0.229 µM | 1.66 µM | GI50 [1]: 0.27 µM; GI50 [8]: 0.104 µM; GI50 [2]: 0.334 µM; GI50 [3]: 0.76 µM; GI50 [4]: 0.02 µM; GI50 [5]: 0.0392 µM; GI50 [6]: 0.147 µM; GI50 [9]: 0.357 µM
Cc1ccc2nc(/C(=C/c3ccc(/C=C(\NC(=O)c4ccccc4)c4nc5ccc(C)cc5[nH]4)c(C)c3)NC(=O)c3ccccc3)[nH]c2c1 | – | > 100 µM | 45.3 µM | 12.2 µM | 79.1 µM | > 100 µM | 91.3 µM | 36.5 µM | – | –
C=CCCCCC1CCC2CCC(CCCCC=C)N12 (stereo unspecified) | 60.9 µM | 37.5 µM | 25.7 µM | 26.9 µM | – | – | – | – | – | –

Structure (SMILES) | TGI [1] | TGI [2] | TGI [3] | TGI [4] | TGI [5] | TGI [6] | TGI [7] | TGI [8] | TGI [9] | other results
c1ccc2c(OCCSCCCCCCCCCCSCCOc3cccc4ccccc34)cccc2c1 | > 100 µM | > 100 µM | > 100 µM | – | > 100 µM | > 100 µM | – | – | – | –
CCN(CC)CCNc1nc(N)c(C#N)c(C#N)c1C#N | – | – | – | – | – | – | – | – | > 10 µM | –
CN1CCC(=O)/C(=C/c2ccccc2)C1 | 32.2 µM | 14.9 µM | 26.6 µM | 17.6 µM | 57.6 µM | 12.5 µM | 33.9 µM | 32.9 µM | – | –
COC1C(OC(=S)Nc2ccccc2)c2ccccc2N1C(C)=O (stereo unspecified) | > 100 µM | > 100 µM | > 100 µM | > 100 µM | > 100 µM | > 100 µM | – | > 100 µM | – | –
CN(C)C(=S)/N=c1\sn(C)/c(=N\C(=S)N(C)C)n1C | > 100 µM | > 100 µM | > 100 µM | > 100 µM | > 100 µM | > 100 µM | > 100 µM | > 100 µM | – | –
CC(C)(C)c1cc(C(P(=O)(O)O)P(=O)(O)O)cc(C(C)(C)C)c1O | > 100 µM | > 100 µM | > 100 µM | > 100 µM | > 100 µM | > 100 µM | – | – | – | –
CC12CCC(=O)C[C@H]1CCC(OC=O)C2Br (stereo partly specified) | > 100 µM | > 100 µM | > 100 µM | > 100 µM | – | > 100 µM | – | > 100 µM | – | –
O=C1CCC2(c3ccc(Cl)cc3)Nc3cc(Cl)ccc3N12 (stereo unspecified) | 14.6 µM | 22.3 µM | 28.9 µM | 24.6 µM | 43.4 µM | 20 µM | 28.9 µM | 15 µM | – | –
CC(C)C1=Cc2ccc3c(c2C(=O)C1=O)CCCC3(C)C | 6.27 µM | 14.8 µM | 42.7 µM | 3.45 µM | 16.6 µM | 5.08 µM | – | – | – | –
CCOC(=O)c1nc2c(OC)nn(O)cc-2c1[N+](=O)[O-] | 34.9 µM | – | 30.1 µM | 31 µM | 44.6 µM | 33.7 µM | – | 29.6 µM | – | –
C=CCC1(c2ccc(OC)cc2)C=CC(=O)CC1 (stereo unspecified) | – | – | – | – | – | – | – | – | > 100 µM | –
COCC(OC)C(CC=C(C#N)C#N)OC (stereo unspecified) | – | > 100 µM | > 100 µM | > 100 µM | > 100 µM | – | – | > 100 µM | – | –
C/C(CC(=O)Nc1ccc(C)c(C)c1)=N\N(c1ccccc1)c1ccccc1 | > 100 µM | 33.5 µM | 26 µM | > 100 µM | > 100 µM | > 100 µM | – | > 100 µM | – | –
Cc1cc2c(=O)c3ccccc3[nH]c2c(C(N)=O)c1C | > 100 µM | – | > 100 µM | > 100 µM | > 100 µM | > 100 µM | > 100 µM | > 100 µM | – | –
COc1ccc(OCC(=O)O)c2c1CCCC2=O | – | > 100 µM | – | > 100 µM | > 100 µM | > 100 µM | > 100 µM | > 100 µM | – | –
C#CC1/C(=C\C(=O)OC)CCCC1O (stereo unspecified) | > 100 µM | > 100 µM | > 100 µM | > 100 µM | > 100 µM | > 100 µM | – | > 100 µM | – | –
COc1cc(C(=O)N2CCN(C(=O)c3cc(OC)c(OC)c(OC)c3)C2=S)cc(OC)c1OC | – | – | – | – | – | – | – | – | 33.9 µM | GI50 [9]: 15 µM
O=C(/C(=C/c1ccc(Cl)cc1)c1ccccc1)c1ccccc1 | 62.3 µM | – | – | 33.7 µM | 68.7 µM | 31.8 µM | – | 34.5 µM | – | –
CN(C)CCC(/C=C/c1ccccc1)=N\Nc1ccccc1 | 16.6 µM | 6.5 µM | 0.655 µM | 0.462 µM | 14.7 µM | 12.5 µM | – | – | – | –
CCOC(=O)c1ccc(/C(C)=N/NC(N)=S)cc1 | > 100 µM | > 100 µM | > 100 µM | > 100 µM | > 100 µM | > 100 µM | > 100 µM | > 100 µM | – | –
CN1C(=O)c2ccccc2NC(=O)C12O[C@@H]2c1ccccc1 (stereo partly specified) | – | – | – | – | – | – | – | – | > 100 µM | –
